PubChem BioAssay (NCI)
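Interpolation was linear, between the two tested concentrations surrounding the appropriate level; five concentrations were tested over 48 hours in 96-well plates. At the GI50, growth is halved. At the TGI there is no net growth.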

Columns and labels:
Assay in all cases: NCI anticancer screen, dose series, 48 h
UACC-62 melanoma = system: UACC-62 melanoma
SNB-78 CNS = system: SNB-78 CNS
KM20L2 colon = system: KM20L2 colon
OVCAR-3 ovarian = system: OVCAR-3 ovarian
LXFL 529 NSCLC = system: LXFL 529 NSCLC
DLD-1 colon = system: DLD-1 colon
DMS 273 small cell lung = system: DMS 273 small cell lung
DMS 114 small cell lung = system: DMS 114 small cell lung
LOX IMVI melanoma = system: LOX IMVI melanoma
XF 498 CNS = system: XF 498 CNS
OVCAR-8 ovarian = system: OVCAR-8 ovarian
M19-MEL melanoma = system: M19-MEL melanoma
A498 renal = system: A498 renal
HOP-18 NSCLC = system: HOP-18 NSCLC

For `O=C1C2=C(CCCCC2)C2CCCCC12O` (stereo not given), the TGI (UACC-62 melanoma) was over 100 µM, the TGI (SNB-78 CNS) was over 100 µM and the TGI (KM20L2 colon) was over 100 µM. The TGI (OVCAR-3 ovarian) was over 100 µM, the TGI (LXFL 529 NSCLC) was over 100 µM and the TGI (DLD-1 colon) was over 100 µM. For the same compound, the TGI (DMS 273 small cell lung) was over 100 µM, the TGI (DMS 114 small cell lung) was over 100 µM and the TGI (LOX IMVI melanoma) was over 100 µM. It also gave a TGI (XF 498 CNS) of over 100 µM, a TGI (OVCAR-8 ovarian) of over 100 µM and a TGI (M19-MEL melanoma) of over 100 µM.
For `COC(=O)[C@@]12OC[C@]34C([C@@H](O)C1O)[C@@]1(C)CC(=O)C(O)=C(C)C1C[C@H]3OC(=O)[C@H](OC(=O)/C=C(/c1ccccc1)C(F)(F)F)[C@H]42` (stereo not given in full), the TGI (UACC-62 melanoma) was 7.31 µM, the TGI (SNB-78 CNS) was over 25 µM and the TGI (A498 renal) was 8.45 µM. The TGI (KM20L2 colon) was 14 µM, the TGI (LXFL 529 NSCLC) was 15.3 µM and the TGI (HOP-18 NSCLC) was over 25 µM. It also gave a TGI (DLD-1 colon) of over 25 µM, a TGI (DMS 273 small cell lung) of 4.87 µM and a TGI (DMS 114 small cell lung) of 17 µM. It also gave a TGI (XF 498 CNS) of 10.6 µM, a TGI (OVCAR-8 ovarian) of over 25 µM and a TGI (M19-MEL melanoma) of 11 µM.
With `N#Cc1ccc(Nc2cnc3ccc(N)cc3n2)cc1` the TGI (UACC-62 melanoma) was over 100 µM, the TGI (SNB-78 CNS) was over 100 µM and the TGI (KM20L2 colon) was over 100 µM. For the same compound, the TGI (OVCAR-3 ovarian) was over 100 µM, the TGI (LXFL 529 NSCLC) was over 100 µM and the TGI (DLD-1 colon) was over 100 µM. The TGI (DMS 273 small cell lung) was over 100 µM, the TGI (DMS 114 small cell lung) was over 100 µM and the TGI (LOX IMVI melanoma) was over 100 µM. The TGI (XF 498 CNS) was over 100 µM, the TGI (OVCAR-8 ovarian) was over 100 µM and the TGI (M19-MEL melanoma) was over 100 µM.
In the case of `CC(C)N1CCC2(CC1)NNc1ncccc1-n1cccc12`, the TGI (SNB-78 CNS) is reported as over 100 µM, the TGI (OVCAR-3 ovarian) is reported as over 100 µM and the TGI (HOP-18 NSCLC) is reported as over 100 µM. For the same compound, the TGI (DLD-1 colon) was over 100 µM, the TGI (DMS 273 small cell lung) was over 100 µM and the TGI (DMS 114 small cell lung) was over 100 µM. It also gave a TGI (LOX IMVI melanoma) of over 100 µM, a TGI (XF 498 CNS) of over 100 µM and a TGI (OVCAR-8 ovarian) of over 100 µM. The TGI (M19-MEL melanoma) was over 100 µM.
`O=C(NC12CC3CC(CC(C3)C1)C2)C(=O)c1c[nH]c2ccc([N+](=O)[O-])cc12` showed a TGI (UACC-62 melanoma) of over 77.1 µM, a TGI (A498 renal) of 98 µM and a TGI (KM20L2 colon) of over 100 µM. It also gave a TGI (OVCAR-3 ovarian) of over 100 µM, a TGI (LXFL 529 NSCLC) of over 100 µM and a TGI (HOP-18 NSCLC) of over 90.9 µM. For the same compound, the TGI (DMS 273 small cell lung) was 45 µM, the TGI (DMS 114 small cell lung) was over 100 µM and the TGI (LOX IMVI melanoma) was over 52 µM. For the same compound, the TGI (XF 498 CNS) was 60.6 µM, the TGI (OVCAR-8 ovarian) was over 100 µM and the TGI (M19-MEL melanoma) was over 100 µM.
Compound `COc1ccc(-c2nnc(-c3c(C)n(C)n(-c4ccccc4)c3=O)o2)cc1` has a TGI (UACC-62 melanoma) of over 100 µM, a TGI (SNB-78 CNS) of over 100 µM and a TGI (A498 renal) of over 100 µM. For the same compound, the TGI (KM20L2 colon) was over 100 µM, the TGI (OVCAR-3 ovarian) was over 100 µM and the TGI (LXFL 529 NSCLC) was over 100 µM. It also gave a TGI (HOP-18 NSCLC) of over 100 µM, a TGI (DLD-1 colon) of over 100 µM and a TGI (DMS 273 small cell lung) of over 100 µM. It also gave a TGI (DMS 114 small cell lung) of over 100 µM, a TGI (LOX IMVI melanoma) of over 100 µM and a TGI (XF 498 CNS) of over 100 µM. For the same compound, the TGI (OVCAR-8 ovarian) was over 100 µM and the TGI (M19-MEL melanoma) was over 100 µM.
In the case of `Cc1ccc(S(=O)(=O)C2c3nc4ccccc4cc3-c3nc4ccccc4nc32)cc1` (stereo not given), the TGI (UACC-62 melanoma) is reported as over 100 µM, the TGI (SNB-78 CNS) is reported as over 100 µM and the TGI (A498 renal) is reported as over 100 µM. It also gave a TGI (KM20L2 colon) of over 100 µM, a TGI (OVCAR-3 ovarian) of over 100 µM and a TGI (LXFL 529 NSCLC) of over 100 µM. For the same compound, the TGI (DLD-1 colon) was over 100 µM, the TGI (DMS 273 small cell lung) was over 100 µM and the TGI (DMS 114 small cell lung) was over 100 µM. The TGI (LOX IMVI melanoma) was over 100 µM, the TGI (XF 498 CNS) was over 100 µM and the TGI (OVCAR-8 ovarian) was over 100 µM. It also gave a TGI (M19-MEL melanoma) of over 100 µM.
`CC1(C)O[C@H]2OC(CO)C(OS(C)(=O)=O)[C@H]2O1` (stereo not given in full) was tested, and the TGI (UACC-62 melanoma) was over 100 µM, the TGI (A498 renal) was over 100 µM and the TGI (OVCAR-3 ovarian) was over 100 µM. The TGI (LOX IMVI melanoma) was over 100 µM and the TGI (OVCAR-8 ovarian) was over 100 µM.
With `COc1cc2cc3c4c(cc(OC)c(OC)c4c2cc1OC)CCN3C(=O)N(C)C` the TGI (UACC-62 melanoma) was over 100 µM, the TGI (SNB-78 CNS) was over 100 µM and the TGI (A498 renal) was over 100 µM. For the same compound, the TGI (KM20L2 colon) was over 100 µM, the TGI (OVCAR-3 ovarian) was over 100 µM and the TGI (LXFL 529 NSCLC) was over 100 µM. For the same compound, the TGI (DLD-1 colon) was over 100 µM, the TGI (DMS 273 small cell lung) was over 100 µM and the TGI (DMS 114 small cell lung) was over 100 µM. For the same compound, the TGI (LOX IMVI melanoma) was over 100 µM, the TGI (OVCAR-8 ovarian) was over 100 µM and the TGI (M19-MEL melanoma) was over 100 µM.
`NC(=O)C[C@H](NC(=O)C1(NC(=O)[C@H](Cc2ccc(CP(=O)(O)O)cc2)NC(=O)C(=O)O)CCCCC1)C(=O)NCCCc1cccc2ccccc12` gave a TGI (UACC-62 melanoma) of over 10 µM, a TGI (A498 renal) of over 10 µM and a TGI (OVCAR-3 ovarian) of over 10 µM. The TGI (LOX IMVI melanoma) was over 10 µM and the TGI (OVCAR-8 ovarian) was over 10 µM.
`NC(=O)c1ncn2c(=O)n(CCl)nnc12` was tested, and the TGI (UACC-62 melanoma) was over 100 µM, the TGI (A498 renal) was over 100 µM and the TGI (OVCAR-3 ovarian) was over 100 µM. The TGI (LOX IMVI melanoma) was over 100 µM and the TGI (OVCAR-8 ovarian) was over 100 µM.
In the case of `CC(=O)Nc1ccc(-c2nnc(SCC(=O)Nc3cccc([N+](=O)[O-])c3)o2)cc1`, the TGI (UACC-62 melanoma) is reported as 23.7 µM, the TGI (SNB-78 CNS) is reported as 50 µM and the TGI (KM20L2 colon) is reported as 37.4 µM. For the same compound, the TGI (OVCAR-3 ovarian) was 40.5 µM, the TGI (LXFL 529 NSCLC) was 17 µM and the TGI (HOP-18 NSCLC) was 65.9 µM. It also gave a TGI (DLD-1 colon) of 35.5 µM, a TGI (DMS 273 small cell lung) of 23.5 µM and a TGI (DMS 114 small cell lung) of 22.3 µM. The TGI (LOX IMVI melanoma) was 23 µM, the TGI (OVCAR-8 ovarian) was 33.4 µM and the TGI (M19-MEL melanoma) was 28.3 µM.
In the case of `C[C@]12CC[C@H](O)CC1=CC[C@@H]1[C@@H]2CC[C@]2(C)c3nc(Cl)ccc3C[C@@H]12`, the TGI (UACC-62 melanoma) is reported as over 100 µM, the TGI (A498 renal) is reported as over 100 µM and the TGI (OVCAR-3 ovarian) is reported as over 73.2 µM. It also gave a TGI (LOX IMVI melanoma) of over 100 µM and a TGI (OVCAR-8 ovarian) of over 100 µM.
`O=[N+]([O-])c1ccc2nc(/C=C(\O)c3ccccc3)c(/C=C(\O)c3ccccc3)nc2c1` gave a TGI (UACC-62 melanoma) of 18.8 µM, a TGI (A498 renal) of over 86.2 µM and a TGI (OVCAR-3 ovarian) of 31.3 µM. For the same compound, the GI50 (LOX IMVI melanoma) was 7.18 µM, the TGI (LOX IMVI melanoma) was 21.3 µM and the TGI (OVCAR-8 ovarian) was 42 µM.
